Experimental findings from US10874598B2, “Compositions and methods for treating damaged hair” (AVON PRODUCTS, INC., priority 2013, dated 2020) are described below.

The assay can be described thus: Tensile load required to break hair fibers (break load). Here is the method: A commercial rinse-off conditioner formulation was used as a control vehicle for the study. An active formulation was prepared by adding 1% (w/w) of TDPA to the control vehicle. Three samples of treated hair were prepared: untreated, treatment with the control vehicle, and treatment with the control vehicle plus 1% TDPA. The treatments were applied to hair tresses that had been previously damaged by artificially color with an oxidative dye. The treatments were repeated five times. The overall condition of the hair fibers was determined by measuring the tensile load required to break the fibers and the results of 30 fibers were averaged. […] In stark contrast, the active formula, having 1% TDPA, gave a break load of about 82 gm. This correlates to an improvement in the tensile strength of about 20%. The formulas used in the testing protocol were as follows: […]

As for `O=C(O)CCSCCC(=O)O` [TDPA, 3,3′-thiodipropionic acid], the “improvement in the tensile strength” value (active formula with 1% TDPA (about 82 gm), untreated hair about 68 gm, control vehicle about 73 gm) is on record as “about 20%”. For the setting “active formula: commercial rinse-off conditioner control vehicle plus 1% (w/w) TDPA, treatments repeated five times, results of 30 fibers averaged, FIG. 1”, the “break load (tensile load required to break the fibers)” value is on record as “about 82 gm”.
